Assay results taken from article PMC3989846 (Malaria Journal, 2014).

Tests used:
[1] = system: luciferase-expressing P. berghei ANKA sporozoites; assay: Real time in vivo imaging (IVIS) of liver-stage luminescence in sporozoite-infected mice; parameters: species or system Plasmodium berghei; details: for Suppression rate (%) IVIS 24 h: 24 h post infection; for Suppression rate (%) IVIS 48 h: 48 h post infection; for Suppression rate (%) IVIS 72 h: 72 h post infection
Description: Luciferase-expressing P. berghei ANKA sporozoites were obtained from laboratory-reared female An. stephensi mosquitoes from the Department of Mosquito Biology, WRAIR. […] Salivary glands were extracted from malaria-infected mosquitoes and kept on ice in RPMI medium with 1% mouse serum. Sporozoites will be recovered by the method of Ozaki, and quantitated using a haemocytometer. Sporozoites isolated from the same batch of mosquitoes will be inoculated into C57BL/6 albino mice on the same day to control for biological variability in sporozoite preparations. Each C57BL/6 mouse will be inoculated intravenously in the tail vein with approximately 50,000 sporozoites suspended in 0.1 mL volume on day 0. To ensure that inoculated sporozoites are viable following the isolation procedure, they will be stained with a vital dye containing fluorescein diacetate (50 mg/mL in acetone) and ethidium bromide (20 μg/mL in phosphate-buffered saline; Sigma Chemical Co., St. Louis, Mo.) and counted in a haemocytometer.
[…] […] Additionally, blood stage infections were measured by flow cytometry. Positive and negative controls were used for the IVIS calibration in each test.
(§1) Causal prophylactic effects and delay in onset of parasitaemia in animals treated with TQ and PQ (Figure 1) were assessed in these experiments, which included a positive control, 4-methyl-PQ. All dosing was conducted based on the body weight at the time of preparation of the dosing solution. […] Each animal received 0.1 - 0.2 ml of the oral solutions, delivered via an intragastric feeder (18-gauge) to the designated recipient. Stock solutions of test compounds were prepared fresh daily by grinding the needed amount of drug in cold (4°C) 0.5% (w/v) hydroxyethyl cellulose and 0.2% (v/v) Tween-80 (0.5% HECT) and diluting the resulting solution at variable concentrations. C57BL/6 albino mice were challenged intravenously with 50,000 luciferase-expressing P. berghei sporozoites extracted from the salivary glands of heavily infected An. stephensi mosquitoes. […] At day 5–30 after infection, the same mice were analysed for blood stage infection by determination of the course of parasitaemia of tail blood by flow cytometry using an FC500 flow cytometer (Beckman-Coulter Co. CA).
In vivo imaging studies of bioluminescence activity from luciferase expressing P. berghei infected mice were performed using a Perkin Elmer IVIS Spectrum (Hanover, MD). […] Three minutes post luciferin administration the mice were anesthetized with inhaled isoflurane. The mice were then positioned ventral side up in the IVIS on a 37°C platform. The mice continue to receive isoflurane through nose cone delivery. The camera exposure times utilized were 1 and 5 minutes for the 24, 48, and 72 hour time points with f-stop = 1 and large binning setting. Quantitative analysis of bioluminescence emitted from whole bodies or region of intensity (ROI) were determined by measuring the luminescence signal intensity in photons/second using the ROI settings of the Living Image® 3.0 software. The ROI, which measurements were expressed in total flux of photons, was set to measure the abdominal area at the location of the liver from whole body imaging.
In the in vivo imaging experiments, causal prophylaxis activity, sporontocidal activity, parasite clearance, causal cure, delays in patency, and time to recrudescence were calculated as described previously. The minimum curative dose (MCD100) in 100% animals was defined as the lowest dose, which cured all animals (>5 animals) in a group at any time during the first 30 days of the follow-up period.

[2] = parameters: method as in PMID 9598455; details: simulated gastric fluid; cited from earlier work
[3] = system: P. berghei ANKA blood stage parasitaemia; assay: Blood stage infection by flow cytometry (FCM) and causal prophylaxis outcome after sporozoite challenge; format: in vivo, Plasmodium berghei; details: for Effects: CP = causal prophylaxis; for Blood Infection by FCM: infected/challenged mice
Protocol: Novel and control anti-malarials were administered orally on days -1, 0, and 1 with respect to sporozoite inoculation. […] Additionally, blood stage infections were measured by flow cytometry. Positive and negative controls were used for the IVIS calibration in each test.
as §1
At day 5–30 after infection, the same mice were analysed for blood stage infections by quantitation of malaria parasites by flow cytometry (FCM). All FCM analyses were carried out with a FC500 MPL flow cytometer (Beckman Coulter, Fullerton, CA), which conducts five-colour analysis from either single or dual laser excitation. Infected erythrocytes, uninfected erythrocytes, and leukocytes were gated on logarithmic forward/side dot plots. Cells were analysed at an average rate of 2,000-3,000 erythrocytes/s. Filters were placed before the green (FL-1) and red (FL-2) photomultiplier tubes (PMTs) such that the green PMT registered fluorescence emission between 520 and 555 nm, and the red PMT measured emission greater than 580 nm.
A drop of blood (3 μL) from the mouse tail was collected directly into 0.3 ml of 1% heparinized isotonic buffer (PBS saline). In this study, 1 ml 0.04% of glutaraldehyde was used for fixation and the samples were then incubated at 4°C for 60 minutes. The cells were centrifuged at 450 × g for 5 min. […] After centrifugation, the permeabilized cells were re-suspended in 0.5 ml of RNAse at 1 mg/ml concentrations and incubated for at least 2 hours at 37°C to ensure complete digestion of reticulocytes. Plasmodium berghei infection in mice results in anaemia which then results in reticulocytosis. Therefore, high RNAse concentrations for digesting large amounts of reticulocytes RNA were required for assessment of parasitaemia in this mouse model.
In the in vivo imaging experiments, causal prophylaxis activity, sporontocidal activity, parasite clearance, causal cure, delays in patency, and time to recrudescence were calculated as described previously. The minimum curative dose (MCD100) in 100% animals was defined as the lowest dose, which cured all animals (>5 animals) in a group at any time during the first 30 days of the follow-up period. […] Means and standard deviations of photon measurement were calculated. Blood stage infection was defined as two positive blood samples by flow cytometry, taken daily apart. The negative blood samples were monitored until day 15 after inoculation. Coefficients of variation were calculated as a percentage by dividing the standard deviation by the mean value.

[4] = 1.25 mg/kg oral, 3 days (-1, 0, 1)
[5] = 5 mg/kg oral, 3 days (-1, 0, 1)
[6] = 5 mg/kg single oral dose on day 0
[7] = 5 mg/kg single oral dose on day -1
[8] = 10 mg/kg oral, 3 days (-1, 0, 1)

## COc1cc(C)c2c(Oc3cccc(C(F)(F)F)c3)c(OC)cc(NC(C)CCCN)c2n1 (stereo not shown) [Tafenoquine, tafenoquine]
[1]; [4]
  Suppression rate (%) IVIS 24 h: 84.7%
  Suppression rate (%) IVIS 48 h: 92.3%
  Suppression rate (%) IVIS 72 h: 98.9%
[1]; [5]
  Suppression rate (%) IVIS 48 h: 100%
  Suppression rate (%) IVIS 72 h: 100%
[1]; [6]
  Suppression rate (%) IVIS 24 h: 66.0%
  Suppression rate (%) IVIS 48 h: 91.1%
  Suppression rate (%) IVIS 72 h: 98.5%
[1]; [7]
  Suppression rate (%) IVIS 24 h: 68.7%
  Suppression rate (%) IVIS 48 h: 98.6%
  Suppression rate (%) IVIS 72 h: 100%
[1]; [8]
  Suppression rate (%) IVIS 24 h: 100%
  Suppression rate (%) IVIS 48 h: 100%
  Suppression rate (%) IVIS 72 h: 100%
[2]
  time to complete dissolution: ≤ 30 min
[3]; [4]
  Number of C57BL/albino mice Causal prophylaxis: 1/5
  Number of C57BL/albino mice Protected completely: 1
  Effects: Suppression
  Blood Infection by FCM: 4/5
[3]; [5]
  Number of C57BL/albino mice Causal prophylaxis: 13/13
  Number of C57BL/albino mice Protected completely: 13
  Effects: Full CP
  Blood Infection by FCM: 0/13
[3]; [6]
  Number of C57BL/albino mice Causal prophylaxis: 1/5
  Number of C57BL/albino mice Protected completely: 1
  Effects: Partial CP
  Blood Infection by FCM: 4/5
[3]; [7]
  Number of C57BL/albino mice Causal prophylaxis: 10/10
  Number of C57BL/albino mice Protected completely: 10
  Effects: Full CP
  Blood Infection by FCM: 0/10
[3]; 5 mg/kg single oral dose on day -1, listed as TQ
  Blood Infection by FCM: no blood stage parasitaemia
[3]; [8]
  Number of C57BL/albino mice Causal prophylaxis: 5/5
  Number of C57BL/albino mice Protected completely: 5
  Effects: Full CP
  Blood Infection by FCM: 0/5
[3]; […] oral, 3 days (-1, 0, 1)
  Number of C57BL/albino mice Causal prophylaxis: 3/5
  Number of C57BL/albino mice Protected completely: 3
[3]; single oral dose, causal prophylaxis in mice
  minimal curative single oral dose: 5 mg/kg
[3]; three oral doses: TQ 5 mg/kg, PQ 25 mg/kg
  causal activity: 100%
